Key:
ATM = ATM activation: phospho-ATM (S1981) ELISA on the nuclear fraction of MCF7 cells; type: cell-based, Human; settings: 1 μM, time course of 6 hours
Experimental: Several assays were utilized to determine the ability of the compounds of the invention to activate ATM over a period of time. […] The fold change in phospho-ATM was measured over a period of time. Accordingly, the increase in phospho-ATM indicates activation of ATM by the compounds of the invention.
In certain examples, the activity of the compounds of the invention was compared to additional modulators of ATM, such as […] (a specific ATM inhibitor); dimethylsulfoxide (DMSO) (a solvent); 3,3′-diindolylmethane (DIM) (an ATM activator); and irradiation (irradiation may result in the generation of phospho-ATM due to DNA damage). DIM was not used as a comparative compound in Example 5.
Materials: MCF7 Cells; Complete RPMI media: RPMI, 10% Fetal Bovine Serum (FBS), 5% L-glutamine, 5% Pen/Strep; R&D Systems Human P-ATM (S1981) DuoSet IC ELISA Assay Kit; Plate sealers; Normal mouse serum (heat inactivated 56 C for 30 min); 96-well ELISA microtiter plate; 450 nm Plate Reader; 60 mm dishes; Disposable pipettes; Pipet-aid; Pipette tips; Micro-pipetter; Cell scraper; Distilled water; Pierce NE-PER Nuclear and Cytoplasmic Extraction Reagent; Pierce Protease and Phosphotase Inhibitor Mini Tablets; KU-55933; DIM (not used in Example 5); Dimethyl sulfoxide (DMSO); Phosphate buffered saline (PBS); and Sterile micro-tubes and conical tubes; Hemocytometer; Microscope; Micro-centrifuge.
MCF7 Cells were grown in Complete RPMI media and 10^6 cells were seeded into 60 mm dishes. Dishes were then divided into duplicate treatments the following day. Control samples were treated with 3 ml RPMI media for 1 hr. Vehicle samples were treated with 3 ml RPMI media plus 0.1% DMSO for 1 hr. Negative control samples were treated with 10 μM KU-55933 in 3 ml RPMI media plus 0.1% DMSO for 1 Hr. Positive control samples were treated with 0.5 μM DIM in 3 ml RPMI media plus 0.1% DMSO for 30 min. Test Samples were treated with 1 μM of the test compounds (e.g. N-(6-(hydroxyamino)-6-oxohexyl)-1H-indole-2-carboxamide in Example 5) in 3 ml RPMI media plus 0.1% DMSO for 30 min; 1 hr; 2 hrs; 4 hrs; and 6 hrs. At their designated time, samples were harvested on ice using a cell scraper and two washes of 1 ml PBS and kept as a cell pellet on dry ice until all were collected. After all samples were collected they were thawed on ice and separated into cytosolic and nuclear fractions using the Pierce NE-PER Nuclear and Cytoplasmic Extraction Reagent kit with added Pierce protease and phosphotase inhibitor tablet.
After recovery of the separate fractions, the process further included washing cells by suspending the cell pellet with PBS. 1-10×10^6 cells were transferred to a 1.5 mL microcentrifuge tube and a pellet was formed by centrifugation at 500×g for 2-3 minutes. […]

[1] = test system: HPV+ CasKi cells vs normal epithelial cells (RWPE1 cells); test: MTT cytotoxicity assay, normal epithelial cells versus HPV+ cervical cancer cells; type: cell-based, human
Experimental: SP-1-161 was tested in a MTT cytotoxicity assay against normal epithelial cells and human papilloma virus positive (HPV+) cancerous (CasKi) cervical cells. […] This supports the role for the compounds of the invention (e.g., SP-1-161) as treatments of HPV+ cancers and tumors.

[2] = test system: cervical cancer cells (CasKi); test: Radiation clonogenic survival, cervical cancer cells; type: cell-based
Experimental: (§1) Logarithmically growing cells were seeded into T-25 flasks at various densities to yield approximately 50-100 colonies/flask. After incubation for 24 h at 37° C., cells were treated or not with the compound at the IC50 concentration for 24 h followed by sham or irradiation at room temperature using a Mark-30 irradiator with a 137-Cs source at a fixed dose rate of 2.27 Gy/min. After 10-14 days, cells were fixed and stained with crystal violet, and colonies of more than 50 cells were counted. The surviving fractions of the treated cells were normalized to the plating efficiencies of untreated controls. Radiation survival curves were fitted by computer to the single-hit, multitarget and the linear-quadratic models.
FIGS. 17-19 illustrate the effects of drugs on radiation cologenetic survivals. Cells were pretreated with drug 24 hours prior to exposure to graded doses of gamma radiation. Compounds SP-1-161 and SP-1-303 were tested in a clonogenic survival study with cervical cancer cells (CasKi) with a protocol similar to that described in Example 12. The radiation sensitivity of cells is defined by the terminal slope of the radiation survival curve, which is referred to as D0. The steeper the slope, the smaller the value of D0 and thus the more radiation sensitive the respective cells. Alternatively, a less steep slope results in a larger D0 and a more resistant radiation response. […]

[3] = test system: breast cancer cells (MCF7 cells); test: Radiation clonogenic survival, breast cancer cells; type: cell-based; settings: compound at IC50 concentration for 24 h, then gamma radiation; compared with DIM
Experimental: N-(6-(hydroxyamino)-6-oxohexyl)-3-methyl-1H-indole-2-carboxamide (SP-1-161) was tested against DIM in a radiation clonogenic survival study with healthy breast epithelial cells (184A1 cells) (FIG. 11A) and breast cancer cells (MCF7 cells) (FIG. 11B). After treatment with the compounds of the invention for 24 hours, the cells were exposed to graded doses of gamma radiation.
as §1
The radiation sensitivity of cells is defined by the terminal slope of the radiation survival curve, which is referred to as D0. The steeper the slope, the smaller is the value of D0, and thus the more radiation sensitive the respective cells. […]

SMILES: Cc1c(C(=O)NCCCCCC(=O)NO)[nH]c2ccccc12 [SP-1-161, N-(6-(hydroxyamino)-6-oxohexyl)-3-methyl-1H-indole-2-carboxamide]
- ATM activation (level of ATM phosphorylation, phospho-ATM) (ATM): exemplary ATM activation activity
- IC50 for HPV+ CasKi cells, times lower than that for normal epithelial cells (RWPE1 cells) [1]: 29 times
- D0 (terminal slope of the radiation survival curve) ([2]; CasKi cells pretreated with drug 24 hours before graded doses of gamma radiation, DMSO control D0=2.4): 1.6
- radiation sensitization of CasKi cells (decrease of D0 with respect to control) ([2]; CasKi cells, drug 24 hours before gamma radiation): sensitized CasKi cells
- radiation sensitizing activity in breast cancer cells (MCF7) [3]: demonstrated radiation sensitizing activity and further outperformed DIM

From patent US10745352B2, “Dual function molecules for histone deacetylase inhibition and ataxia telangiectasia mutated activation and methods of use thereof” (Shuttle Pharmaceuticals, Inc., priority 2015, dated 2020)
